In PubChem BioAssay AID602296 (Broad Institute, 2012) one finds AC40 data, which are given here for 36 compounds.

Results filed as inconclusive are left out. Activity calls are given as the source filed them.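 How the source made its calls: active means fitted activation curve crossing 40% at a concentration no higher than the sample's top valid tested dose; inconclusive means flat fitted curve at 30% to 70% activation, or poor curve fit; inactive means signal decrease, flat curve within 30%, or the rest.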

This test concerns NIH3T3-HGL HSF-1 response element luciferase, 48 h. Kind of test: HSF-1 reporter activators over prolonged exposure, confirmation, cell-based, mouse, luciferase, cherry-pick, dose (AID 602296).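 Further: test compounds applied by themselves with no MG132 co-treatment.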

On to `O=C(NC(=S)Nc1ccccc1C(F)(F)F)c1ccccc1F`, for which the AC40 was 19.3 µM.

For the compound `Cc1cccc(CN(C(=S)Nc2c(C)cccc2C)c2cccnc2)c1`, the AC40 was 24.7 µM.

As to `O=C(NC1CCSc2ccccc21)c1ccccc1Cl` (stereo unspecified), the AC40 is 6.46 µM.

In the case of `CCN(CCNC(=O)CN1CCN(Cc2ccc(Cl)cc2)C1=O)c1ccccc1`, the AC40 is 20.9 µM.

As to `COC(=O)C(C)N(C(=O)c1ccc(C(=O)c2ccccc2)cc1)c1c(C)cccc1C` (stereo unspecified), the AC40 was 19.3 µM.

With `Cn1c2ccc(F)cc2c2ncn(CCN3CCOCC3)c(=O)c21`, the AC40 was > 26 µM (inactive).

With `CCOc1ccccc1-c1noc(CCCC(=O)NC2CCCCC2)n1`, the AC40 was > 26 µM (inactive).

Take `Cc1ccc(N2C(=O)SC(N(CC(=O)O)c3ccc(C)cc3)C2=O)cc1` (stereo unspecified): the AC40 is 9.53 µM.

As for `O=C(CSCc1ccc(Br)cc1)N1CCCC1`, the AC40 is 11.3 µM.

`OCC1(CCCc2ccccc2)CCN(C2CCSCC2)CC1`: the AC40 is > 26 µM (inactive).

Consider `O=C1C=C(c2ccccc2)CC(/C=C/c2ccccc2)C1` (stereo unspecified), for which the AC40 was 18 µM.

Regarding `CC1=C(Sc2nc3ccccc3[nH]2)C(=O)NC(C)(C)C1`, the AC40 is > 26 µM (inactive).

`Cc1cccc(NC(=O)CSc2nnc(-c3ccco3)c(-c3ccco3)n2)c1C`: the AC40 was > 26 µM (inactive).

For the compound `Cc1sc2nc(C)n(/N=C/c3ccc(O)cc3O)c(=O)c2c1C`, the AC40 is > 26 µM (inactive).

Consider `COc1ccc(/C=C2/SC(=O)N(CCNC(=O)C3COc4ccccc4O3)C2=O)cc1` (stereo unspecified), for which the AC40 is 5.69 µM.

`CC(=O)Nc1nnc(SCC(=O)c2ccc(F)cc2)s1`: the AC40 is 17.4 µM.

Turning to `CCc1ccc(CN2C(=O)c3ccccc3C2C(=O)NCC2CCCO2)cc1` (stereo unspecified), the AC40 is > 26 µM (inactive).

`Cc1c(Cl)ccc2c1NC(=O)C21NC(CCC(N)=O)[C@H]2C(=O)N(c3ccc(Cl)cc3)C(=O)[C@H]21` (stereo partly specified): the AC40 is > 12 µM (inactive).

Regarding `CCCNC(=O)Nc1ccc(C)cc1C`, the AC40 was > 26 µM (inactive).

`O=C(O)c1csc(N/N=C/c2ccc(Br)cc2)n1`: the AC40 was > 26 µM (inactive).

For `COCCCNC(=O)c1ccc(NS(C)(=O)=O)cc1`, the AC40 is > 26 µM (inactive).

With `COc1cc2nc(CSc3nc(-c4ccc(F)cc4)cs3)[nH]c(=O)c2cc1OC`, the AC40 was > 26 µM (inactive).

On to `COC(=O)[C@@H]1C[C@]2(OC(=O)c3ccccc3)C=CC(=O)C[C@@H]2N1C(=O)OCc1ccccc1`, for which the AC40 was 12.4 µM.

For the compound `CCN(CC)CCCNC(=O)CSc1c2c(nc3cc(Cl)ccc13)CCCC2`, the AC40 is 22 µM.

Regarding `O=C(COC(=O)C1CSC2(c3ccc(F)cc3)CCC(=O)N12)NC(=O)NC1CCCC1` (stereo unspecified), the AC40 was > 26 µM (inactive).

As to `COc1ccc(C(=O)CC(=O)C(=O)Nc2cc(OC)c(OC)c(OC)c2)cc1`, the AC40 was > 26 µM (inactive).

Consider `COc1ccc(-c2coc3cc4oc(=O)c(CC(=O)O)c(C)c4cc23)cc1`, for which the AC40 was > 26 µM (inactive).

As to `O=c1[nH]c2ccccc2n1CCC1CCCCC1`, the AC40 is 5.36 µM.

For `Cc1ccc(C)c(CN2C(=O)COc3ccccc32)c1`, the AC40 is > 26 µM (inactive).

Turning to `C/C(=N\NC(=O)c1cccc(N/N=C(\C)c2cc(O)ccc2O)c1)c1cc(O)ccc1O`, the AC40 was > 12 µM (inactive).

`CC1(c2ccc([N+](=O)[O-])cc2)NC(=O)N(CC(=O)c2ccc3c(c2)OCO3)C1=O` (stereo unspecified): the AC40 was > 26 µM (inactive).

As to `Cn1c(C(=O)OC(C(=O)NC(C)(C)C)c2cccnc2)cc2sccc21` (stereo unspecified), the AC40 is > 26 µM (inactive).

On to `Cc1ccc(CSc2nc3ccccc3c(=O)n2CCCC(=O)NCc2ccco2)cc1`, for which the AC40 was > 26 µM (inactive).

In the case of `O=c1[nH]c(N2CCN(c3ccccc3)CC2)nc2c1CCC2`, the AC40 is > 26 µM (inactive).

As for `O=C(Nc1ccc(Br)cn1)c1ccc([N+](=O)[O-])o1`, the AC40 is > 26 µM (inactive).

As for `CC(=NCc1ccco1)C1=C(O)c2ccccc2C1=O`, the AC40 is 16.6 µM.
